Measurements reported in US20110152166A1, “METHOD OF MODULATION OF PROTEIN PHOSPHORYLATION-DEPENDENT CONFORMATIONAL TRANSITIONS WITH LOW MOLECULAR WEIGHT COMPOUNDS” (priority 2006, published 2011).
Square brackets hold non-standard residues; d marks the D form. Ends that are not written are not given here. pS = N[C@@H](COP(=O)(O)O)C(=O)O

Experiments:
Assay in all cases: PDK1 activity assay with T308tide
Assay type in all cases: biochemical
PDK1 [Phe224Trp] = target: T1, PDK1 [Phe224Trp] (Homo sapiens, UniProt O15530, F224W); conditions: catalytic domain 50-360
T1 construct: the catalytic domain of PDK1 (50-359) produced in SF9 insect cells; His-tag (N, cleaved yes); made in house; host or cells: insect cells (baculovirus)
T1 sequence (O15530 50-359 F224W): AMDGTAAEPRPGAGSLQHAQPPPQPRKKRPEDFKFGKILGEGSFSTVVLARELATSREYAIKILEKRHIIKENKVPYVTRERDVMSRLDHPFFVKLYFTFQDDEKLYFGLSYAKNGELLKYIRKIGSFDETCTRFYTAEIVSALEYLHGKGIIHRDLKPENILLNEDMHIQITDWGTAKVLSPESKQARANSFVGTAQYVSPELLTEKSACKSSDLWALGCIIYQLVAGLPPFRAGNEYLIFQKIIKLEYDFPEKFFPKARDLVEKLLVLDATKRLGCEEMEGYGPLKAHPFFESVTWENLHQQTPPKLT
Protocol: (§1) FIG. 6—A mutation at Thr226 in PDK1 uncouples the ligand binding to the HM/PIF-pocket from activation of the kinase. The catalytic domain (CD) of PDK1 50-360 and its mutants Phe224Trp and Thr226Trp were expressed in insect cells and purified. (A) PDK1 activity was measured in the presence or absence of the HM-polypeptide PIFtide or compound 1 using T308tide as a substrate. PDK1 CD wt and PDK1 [Phe224Trp] were activated by PIFtide and compound 1 whereas PDK1 CD [Thr226Trp] mutant was not activated. (B,C,D,E) PDK1 [Phe224Trp] and PDK1 [Thr226Trp] retain significant binding to P-HM polypeptides and PIFtide. Surface plasmon resonance measurements were carried out on a BiaCore system to evaluate the binding affinities of PDK1 CD wt, PDK1 [Phe224Trp] and PDK1 [Thr226Trp] to HM-polypeptides. Biotin-P-HM-polypeptide derived from S6K1 was immobilized on a streptavidin-coated sensor chip and the specific interaction with PDK1 was recorded. (B) The direct binding of PDK1 CD wt to biotin-P-HM-S6K was recorded at the indicated concentrations of PDK1 CD. The Kd (0.05 μM) was estimated based on the response units obtained at each concentration at equilibrium (insert).
(§2) Protein kinase activity tests were performed essentially as previously described (Balendran et al., 2000; Biondi et al., 2000; Biondi et al., 2001). Substrates used were either MBP (for PKCζ or polypeptides (Crosstide for PKB, S6K, SGK and PRK2; T308tide for PDK1, and Kemptide for PKA). PKA (Sigma) was measured in the presence of 100 μM cAMP. Alternatively, assays were performed in a 96 well format, aliquots spotted on p81 phosphocellulose papers (Whatmann), washed in 0.01% phosphoric acid, dried, and then exposed and analysed using Phospholmager technology (Storm, Molecular Dynamics). Activity measurements were performed in duplicates with less than 10% difference between duplicate pairs. Experiments were repeated at least twice, although most of the experiments were repeated multiple times, with similar results.
(§3) PDK1 activity assay was performed in a 20 μl mix containing 50 mM Tris-HCl pH 7.5, 0.05 mg/ml BSA, 0.1% β-mercaptoethanol, 10 mM MgCl2, 100 μM [γ^32P]ATP (5-50 cpm/pmol), 0.003% Brij, 150 ng PDK1, and T308tide (from 0.05 to 1 mM). PDK1 specific activity was approximately 5 U/mg (when measured at 1 mM T308tide). The effect of small compounds on PDK1 was repeated with proteins from different purification batches and with different protein constructs, comprising the full length protein or the catalytic domain alone, with similar results. […] This variability may be due to the PIFtide/compound-stimulated autophosphorylation of the activation loop in certain preparations having less than a 1:1 molar phosphorylation stoichiometry at this site.

PDK1 [Thr226Trp] = target: T2, PDK1 [Thr226Trp] (Homo sapiens, UniProt O15530, T226W); conditions: catalytic domain 50-360
T2 construct: the catalytic domain of PDK1 (50-359) produced in SF9 insect cells; His-tag (N, cleaved yes); made in house; host or cells: insect cells (baculovirus)
T2 sequence (O15530 50-359 T226W): as the sequence (O15530 50-359 F224W) above, with W175F, T177W counted along it
Protocol: as §1, §2, §3

GST-PDK1 [Ile119Ala] = target: T3, GST-PDK1 [Ile119Ala] (Homo sapiens, UniProt O15530, I119A); conditions: for AC50 / Max. activity: GST-PDK1 [Ile119Ala]
T3 construct: different protein constructs, comprising the full length protein or the catalytic domain alone; made in house; host or cells: HEK293 cells (pEBG-2T-PDK1 mutant)
T3 sequence (O15530 1-556 I119A): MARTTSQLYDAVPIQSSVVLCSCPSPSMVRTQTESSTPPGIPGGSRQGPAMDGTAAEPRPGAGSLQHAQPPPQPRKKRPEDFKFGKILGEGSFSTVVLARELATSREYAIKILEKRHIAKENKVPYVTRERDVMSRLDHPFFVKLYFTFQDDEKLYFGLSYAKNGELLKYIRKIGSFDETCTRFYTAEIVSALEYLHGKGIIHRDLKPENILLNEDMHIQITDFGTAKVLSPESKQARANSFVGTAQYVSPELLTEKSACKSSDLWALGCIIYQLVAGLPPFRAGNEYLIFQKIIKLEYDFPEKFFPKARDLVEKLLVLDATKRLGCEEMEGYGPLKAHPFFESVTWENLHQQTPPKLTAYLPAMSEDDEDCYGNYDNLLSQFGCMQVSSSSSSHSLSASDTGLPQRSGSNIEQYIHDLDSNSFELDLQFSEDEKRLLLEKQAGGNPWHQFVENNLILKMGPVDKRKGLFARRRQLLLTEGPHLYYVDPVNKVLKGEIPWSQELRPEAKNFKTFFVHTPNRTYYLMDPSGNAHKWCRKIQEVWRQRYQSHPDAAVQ

Row | activation of PDK1 [Phe224Trp] (in words) (PDK1 [Phe224Trp]) | activation of PDK1 [Thr226Trp] (in words) (PDK1 [Thr226Trp]) | AC50 (GST-PDK1 [Ile119Ala]) | Max. activity (GST-PDK1 [Ile119Ala]) | activation of PDK1 mutant (in words) (GST-PDK1 [Ile119Ala]; Ile119 mutant, P-HM-RSK 20 μM) | Compound
1 | activated | not activated | 90 ± 20 µM | 2.1 ± 0.23 U/mg |  | O=C(O)CSC(CC(=O)c1ccc(Cl)cc1)c1ccccc1 (stereo not drawn) [Compound 1]
2 |  |  |  |  | completely abolished | P-HM-RSK: phosphorylated HM polypeptide of RSK: KGAGGGGFRGFS(P)FVA (KGAGGGGFRGF[pS]FVA)
3 | activated | not activated | 0.66 ± 0.14 µM | 2.58 ± 0.17 U/mg |  | REPRILSEEEQEMFRDFDYIADWC [PIFtide, reference compound]
